Results reported in ChEMBL document CHEMBL3632530, “Synthesis and structure-activity relationship study of benzofuran-based chalconoids bearing benzylpyridinium moiety as potent acetylcholinesterase inhibitors” (Eur J Med Chem, 2015).

Molecular target: Acetylcholinesterase (Torpedo californica, UniProt P04058)
Assay: Inhibition of Torpedo californica AChE (type VI-S) using acetylthiocholine iodide as substrate assessed as 5-thio-2-nitrobenzoate anion formation preincubated for 15 mins followed by substrate addition
Design: species or system Tetronarce californica

Acetylcholinesterase, sequence (P04058 whole entry): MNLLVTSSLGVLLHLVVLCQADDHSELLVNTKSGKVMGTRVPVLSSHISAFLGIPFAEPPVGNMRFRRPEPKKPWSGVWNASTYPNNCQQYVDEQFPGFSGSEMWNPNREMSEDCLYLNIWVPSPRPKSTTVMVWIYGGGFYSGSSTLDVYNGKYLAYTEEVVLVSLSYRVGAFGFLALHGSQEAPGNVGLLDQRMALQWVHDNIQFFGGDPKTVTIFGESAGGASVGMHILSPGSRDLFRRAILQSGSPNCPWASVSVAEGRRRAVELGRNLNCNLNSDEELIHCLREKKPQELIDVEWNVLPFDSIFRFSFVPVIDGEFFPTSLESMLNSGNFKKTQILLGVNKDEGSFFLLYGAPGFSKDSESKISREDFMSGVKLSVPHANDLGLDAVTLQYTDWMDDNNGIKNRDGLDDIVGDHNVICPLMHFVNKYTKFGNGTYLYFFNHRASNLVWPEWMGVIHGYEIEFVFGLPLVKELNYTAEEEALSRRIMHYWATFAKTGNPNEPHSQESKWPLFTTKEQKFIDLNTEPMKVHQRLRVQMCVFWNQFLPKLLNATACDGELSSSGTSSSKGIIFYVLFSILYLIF

Compound	IC50 [nM]
O=C(/C=C/c1ccc[n+](Cc2ccccc2)c1)c1cc2ccccc2o1	58
O=C(/C=C/c1ccc[n+](Cc2ccccc2Br)c1)c1cc2ccccc2o1	35
O=C(/C=C/c1ccc[n+](Cc2ccc(Br)cc2)c1)c1cc2ccccc2o1	357
O=C(/C=C/c1ccc[n+](Cc2ccc([N+](=O)[O-])cc2)c1)c1cc2ccccc2o1	29200
O=C(/C=C/c1ccc[n+](Cc2ccccc2)c1)c1cc2cc(Br)ccc2o1	5410
O=C(/C=C/c1ccc[n+](Cc2ccccc2Br)c1)c1cc2cc(Br)ccc2o1	2150
O=C(/C=C/c1ccc[n+](Cc2ccc(Br)cc2)c1)c1cc2cc(Br)ccc2o1	31000
O=C(/C=C/c1ccc[n+](Cc2cccc(Cl)c2Cl)c1)c1cc2cc(Br)ccc2o1	2850
O=C(/C=C/c1ccc[n+](Cc2ccc(Cl)c(Cl)c2)c1)c1cc2cc(Br)ccc2o1	786
COc1cccc2cc(C(=O)/C=C/c3ccc[n+](Cc4ccccc4)c3)oc12	3890
COc1cccc2cc(C(=O)/C=C/c3ccc[n+](Cc4ccccc4Br)c3)oc12	27
COc1cccc2cc(C(=O)/C=C/c3ccc[n+](Cc4ccc(Br)cc4)c3)oc12	10700
COc1cccc2cc(C(=O)/C=C/c3ccc[n+](Cc4ccc(Cl)cc4)c3)oc12	11200
COc1cccc2cc(C(=O)/C=C/c3ccc[n+](Cc4cccc(Cl)c4Cl)c3)oc12	985
O=C(/C=C/c1cc[n+](Cc2ccccc2)cc1)c1cc2ccccc2o1	64
O=C(/C=C/c1cc[n+](Cc2ccccc2Br)cc1)c1cc2ccccc2o1	41
O=C(/C=C/c1cc[n+](Cc2cccc(Cl)c2Cl)cc1)c1cc2ccccc2o1	3120
O=C(/C=C/c1cc[n+](Cc2ccccc2)cc1)c1cc2cc(Br)ccc2o1	5960
